System: intestinal lymph node cells
Experiment: Production of IgA, IgG and cytokines by intestinal lymph node cells of mice fed lactosucrose (Experiment 3)
Type: in vivo
Details: for IFN-γ produced by intestinal lymph node cells / IL-4 produced by intestinal lymph node cells / IL-6 produced by intestinal lymph node cells / IL-10 produced by intestinal lymph node cells / IgA produced by intestinal lymph node cells / IgG produced by intestinal lymph node cells: four weeks
Description: In order to investigate what type of immunopathologically-mediated tissue exerts the enhancing effect on gut immunity, the amounts of IgA, IgG, and various cytokines were measured. Similarly as in Experiment 1, female BALB/c mice (six weeks old) were preliminary reared for one week on “AIN-93G”, the same standard purified diet as used in Experiment 1. Successively, “LS-90P”, a saccharide composition comprising 91.8% (w/w), on a dry solid basis, of lactosucrose commercialized by ENSUIKO Sugar Refining Co., Ltd., Tokyo, Japan, was incorporated into the above purified diet, in which corn starch equal to the amount of the saccharide composition comprising lactosucrose had been removed, to give a lactosucrose content of 2% (w/w) or 5% (w/w), and five mice/group were allowed to ingest the resulting test diet freely. Mice, allowed to ingest “AIN-93G”, as the standard purified diet, were used as control. At four weeks after starting the administration of the test diet, Peyer's patch and intestinal lymph nodes were respectively removed from the mice and cut using a scissor. Then, the resultants were respectively treated in 0.2% (w/v) aqueous collagenase solution at 37° C. for 30 min, and filtrated using a cell strainer to obtain cell suspensions. Each cell suspension was centrifuged to collect cells and the resulting cells were suspended into a 45% (v/v) solution of “PERCOLL”, commercialized by GE Healthcare, to make into a cell suspension. Each resulting suspension was successively placed on a 75% (v/v) “PERCOLL” solution and centrifuged at 1,000×g for 10 min. Cells in a boundary phase between 45% (v/v) and 75% (v/v) “PERCOLL” solution were collected and suspended in RPMI1640 medium comprising 10% FCS and 10 mM HEPES, and the cell concentration was adjusted to 1×10^6 cells/ml. The resulting cell suspension was placed in a 24-well plate to give one ml/well each. Then, 2 μg/ml of Concanavaline A (Con A) as a stimulator to T-cell or 10 μg/ml of lipopolysaccharide (LPS) as a stimulator to B-cell and macrophage cell was admixed with the cell suspension, and then the cells were cultured at 37° C. for 48 hours using 5% (v/v) carbon dioxide gas. A culture supernatant was collected from each well, and the amounts of IgA, IgG, IFN-γ, interleukin-4 (IL-4), IL-6, interleukin-10 (IL-10), and TGF-β were measured by ELISA using an anti-mouse IgA antibody, anti-mouse IgG antibody, anti-mouse IFN-γ antibody (commercialized by Pepro Tech EC. Ltd.), anti-mouse IL-4 antibody (commercialized by R&D Systems), anti-mouse IL-6 antibody (commercialized by R&D Systems), anti-mouse IL-10 antibody (commercialized by R&D Systems), and anti-mouse TGF-β antibody (commercialized by Promega Co., Wisconsin, USA), and the average values of those from five mice were determined. The results for Peyer's patch cells and intestinal lymph node cells are respectively in Tables 3 and 4. The percentages in parentheses in the tables mean a relative value to the amount of IgA, IgG, IFN-γ, IL-4, IL-6, IL-10 or TGF-β produced by Peyer's patch cells or intestinal lymph node cells from the control mice.

[1] = Lactosucrose 2% (w/w) diet, Con A
[2] = Lactosucrose 2% (w/w) diet, LPS
[3] = Lactosucrose 2% (w/w) diet, LPS, DL: Detection limit
[4] = Lactosucrose 5% (w/w) diet, Con A
[5] = Lactosucrose 5% (w/w) diet, LPS
[6] = Lactosucrose 5% (w/w) diet, LPS, DL: Detection limit

OC[C@H]1O[C@@H](O[C@H]2[C@H](O)[C@@H](O)[C@@H](O[C@]3(CO)O[C@H](CO)[C@@H](O)[C@@H]3O)O[C@@H]2CO)[C@H](O)[C@@H](O)[C@H]1O [Lactosucrose, β-D-galactosyl-(1,4)-α-D-glucosyl-(1,2)-β-D-fructoside]
IFN-γ produced by intestinal lymph node cells [1]: 8.5 ± 3.4 ng/mL
IL-4 produced by intestinal lymph node cells [1]: 22 ± 0.89 pg/mL
IL-6 produced by intestinal lymph node cells [1]: 3.0 ± 0.81 pg/mL
IL-10 produced by intestinal lymph node cells [1]: 14 ± 15 pg/mL
IgA produced by intestinal lymph node cells [1]: 41 ± 15 µg/mL
IgG produced by intestinal lymph node cells [1]: 1.9 ± 1.5 ng/mL
IL-6 produced by intestinal lymph node cells [2]: 7.4 ± 2.6 pg/mL
IgA produced by intestinal lymph node cells [2]: 38 ± 17 µg/mL
IgG produced by intestinal lymph node cells [2]: 1.5 ± 1.0 ng/mL
IFN-γ produced by intestinal lymph node cells [3]: Below DL*
IL-4 produced by intestinal lymph node cells [3]: Below DL*
IL-10 produced by intestinal lymph node cells [3]: Below DL*
IFN-γ produced by intestinal lymph node cells, relative value to control (Lactosucrose 2% (w/w), Con A): (127%)
IL-4 produced by intestinal lymph node cells, relative value to control (Lactosucrose 2% (w/w), Con A): (88%)
IL-6 produced by intestinal lymph node cells, relative value to control (Lactosucrose 2% (w/w), Con A): (103%)
IL-10 produced by intestinal lymph node cells, relative value to control (Lactosucrose 2% (w/w), Con A): (127%)
IgA produced by intestinal lymph node cells, relative value to control (Lactosucrose 2% (w/w), Con A): (85%)
IgG produced by intestinal lymph node cells, relative value to control (Lactosucrose 2% (w/w), Con A): (100%)
IL-6 produced by intestinal lymph node cells, relative value to control (Lactosucrose 2% (w/w), LPS): (107%)
IgA produced by intestinal lymph node cells, relative value to control (Lactosucrose 2% (w/w), LPS): (93%)
IgG produced by intestinal lymph node cells, relative value to control (Lactosucrose 2% (w/w), LPS): (115%)
IFN-γ produced by intestinal lymph node cells [4]: 3.8 ± 1.2 ng/mL
IL-4 produced by intestinal lymph node cells [4]: 21 ± 1.1 pg/mL
IL-6 produced by intestinal lymph node cells [4]: 2.7 ± 0.44 pg/mL
IL-10 produced by intestinal lymph node cells [4]: 14 ± 12 pg/mL
IgA produced by intestinal lymph node cells [4]: 37 ± 31 µg/mL
IgG produced by intestinal lymph node cells [4]: 1.00 ± 0.94 ng/mL
IL-6 produced by intestinal lymph node cells [5]: 4.3 ± 1.1 pg/mL
IgA produced by intestinal lymph node cells [5]: 29 ± 22 µg/mL
IgG produced by intestinal lymph node cells [5]: 0.79 ± 0.79 ng/mL
IFN-γ produced by intestinal lymph node cells [6]: Below DL*
IL-4 produced by intestinal lymph node cells [6]: Below DL*
IL-10 produced by intestinal lymph node cells [6]: Below DL*
IFN-γ produced by intestinal lymph node cells, relative value to control (Lactosucrose 5% (w/w), Con A): (57%)
IL-4 produced by intestinal lymph node cells, relative value to control (Lactosucrose 5% (w/w), Con A): (84%)
IL-6 produced by intestinal lymph node cells, relative value to control (Lactosucrose 5% (w/w), Con A): (93%)
IL-10 produced by intestinal lymph node cells, relative value to control (Lactosucrose 5% (w/w), Con A): (127%)
IgA produced by intestinal lymph node cells, relative value to control (Lactosucrose 5% (w/w), Con A): (77%)
IgG produced by intestinal lymph node cells, relative value to control (Lactosucrose 5% (w/w), Con A): (53%)
IL-6 produced by intestinal lymph node cells, relative value to control (Lactosucrose 5% (w/w), LPS): (62%)
IgA produced by intestinal lymph node cells, relative value to control (Lactosucrose 5% (w/w), LPS): (71%)
IgG produced by intestinal lymph node cells, relative value to control (Lactosucrose 5% (w/w), LPS): (61%)

Reference: US20090270342A1, “IMMUNOREGULATORY AGENT” (priority 2006, published 2009)
